Measured values published in ChEMBL document CHEMBL1201862, “PubChem BioAssay data set” (2004).
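Following 48 hours of exposure in 96-well plates, responses at five concentrations were used to interpolate endpoints linearly. GI50 = concentration required for 50% inhibition of growth.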 Calls of active or inactive are those of the source. Rule as the data show it: active = GI50 up to about 1.1 µM and inactive = higher. Where a SMILES comes first, the peptide text is derived from it. [ ]: non-standard residue; d: D form. The star is where a group is joined. ξ: configuration not given here. NMeF = CN[CH](Cc1ccccc1)C(=O)O; ξNMe2Val = CC(C)C(C(=O)*)N(C)C; NMeV = CN[CH](C(=O)O)C(C)C; OtBu = CC(C)(C)O*

Tests used:
Assay in all cases: growth of human tumour cells (NCI), 48 h
786-0 = test system: 786-0
CCRF-CEM = test system: CCRF-CEM
DMS-273 = test system: DMS-273
EKVX = test system: EKVX
HCT-116 = test system: HCT-116
HOP-92 = test system: HOP-92
IGROV-1 = test system: IGROV-1
M14 = test system: M14
NCI-H522 = test system: NCI-H522
OVCAR-3 = test system: OVCAR-3
SF-295 = test system: SF-295
SK-MEL-2 = test system: SK-MEL-2
SK-MEL-5 = test system: SK-MEL-5
SN12C = test system: SN12C
SNB-75 = test system: SNB-75
SW-620 = test system: SW-620
TK-10 = test system: TK-10

SMILES | GI50 (786-0) | GI50 (CCRF-CEM) | GI50 (DMS-273) | GI50 (EKVX) | GI50 (HCT-116) | GI50 (HOP-92) | GI50 (IGROV-1) | GI50 (M14) | GI50 (NCI-H522) | GI50 (OVCAR-3) | GI50 (SF-295) | GI50 (SK-MEL-2) | GI50 (SK-MEL-5) | GI50 (SN12C) | GI50 (SNB-75) | GI50 (SW-620) | GI50 (TK-10)
Oc1nnc(CNc2ccc(Cl)cc2Cl)c2ccccc12 | 16.7 µM (inactive) | > 100 µM (inactive) | 19.5 µM (inactive) | 36.2 µM (inactive) | 22.8 µM (inactive) | 32.7 µM (inactive) | 25.5 µM (inactive) | 32 µM (inactive) | 18.2 µM (inactive) | 18.9 µM (inactive) | 20.9 µM (inactive) | 82.8 µM (inactive) | 19.7 µM (inactive) | 34.3 µM (inactive) | 23.6 µM (inactive) | 37.1 µM (inactive) | 20.7 µM (inactive)
CCOC(=O)C1(C(=O)OCC)CC=C(C)CC12C(=O)Nc1ccccc12 (stereo not given) | > 100 µM (inactive) | > 100 µM (inactive) | > 100 µM (inactive) | > 100 µM (inactive) | > 100 µM (inactive) | > 100 µM (inactive) | > 100 µM (inactive) | > 100 µM (inactive) | > 100 µM (inactive) | > 100 µM (inactive) | > 100 µM (inactive) | > 100 µM (inactive) | > 100 µM (inactive) | > 100 µM (inactive) | > 100 µM (inactive) | > 100 µM (inactive) | > 100 µM (inactive)
C[C@]12CC(C=O)C(=O)C(O)=C1CC[C@@H]1C2CC[C@@]2(C)C1CC[C@]2(C)O (stereo not given in full) | 16.3 µM (inactive) | > 10 µM (inactive) | 21.6 µM (inactive) | 31.8 µM (inactive) | 20 µM (inactive) | 16 µM (inactive) | 19.2 µM (inactive) | 16.8 µM (inactive) |  | 24.8 µM (inactive) | 27.1 µM (inactive) | 5.02 µM (inactive) | 17.6 µM (inactive) | 21.2 µM (inactive) | 20.6 µM (inactive) | 34.3 µM (inactive) | 38.9 µM (inactive)
CC1=CC2CCC1(C)C/C2=C(/C)OC=O (stereo not given) | > 100 µM (inactive) | > 100 µM (inactive) | > 100 µM (inactive) | > 100 µM (inactive) | > 100 µM (inactive) | > 100 µM (inactive) | > 100 µM (inactive) | > 100 µM (inactive) | > 100 µM (inactive) | > 100 µM (inactive) | > 100 µM (inactive) | > 100 µM (inactive) | > 100 µM (inactive) | > 100 µM (inactive) | > 100 µM (inactive) | > 100 µM (inactive) | > 100 µM (inactive)
CNC(=O)NCCN1N=C(C)/C(=C\c2ccccc2)CC1=O | > 100 µM (inactive) | > 100 µM (inactive) | > 100 µM (inactive) |  | > 100 µM (inactive) | > 100 µM (inactive) | > 100 µM (inactive) | > 100 µM (inactive) | > 100 µM (inactive) | > 100 µM (inactive) | > 100 µM (inactive) | > 100 µM (inactive) | > 100 µM (inactive) | > 100 µM (inactive) | 29 µM (inactive) | > 100 µM (inactive) | > 100 µM (inactive)
CCn1c(=O)c2ccccc2n2c(=O)c3cc4ccccc4cc3nc12 | 37.3 µM (inactive) | > 100 µM (inactive) | > 100 µM (inactive) | > 100 µM (inactive) | > 100 µM (inactive) |  | > 100 µM (inactive) | > 100 µM (inactive) | 98.9 µM (inactive) | > 100 µM (inactive) | 28.3 µM (inactive) | > 100 µM (inactive) | 63 µM (inactive) | > 100 µM (inactive) | 27.4 µM (inactive) | > 100 µM (inactive) | > 100 µM (inactive)
O=c1c2ccccc2nc(-c2ccccc2)n1NCC1(O)OCC(O)C(O)C1O (stereo not given) | > 100 µM (inactive) | 33.1 µM (inactive) | 60.5 µM (inactive) | > 100 µM (inactive) | > 100 µM (inactive) | > 100 µM (inactive) | > 100 µM (inactive) | > 100 µM (inactive) | > 100 µM (inactive) | > 100 µM (inactive) | 49.2 µM (inactive) | > 100 µM (inactive) | 48 µM (inactive) | > 100 µM (inactive) | 50 µM (inactive) | 87.5 µM (inactive) | > 100 µM (inactive)
Cc1nc(N)nc(CCC(=O)Nc2cccc(C(F)(F)F)c2)c1-c1ccc(Cl)cc1 | > 100 µM (inactive) | > 100 µM (inactive) | > 100 µM (inactive) | > 100 µM (inactive) | > 100 µM (inactive) | > 100 µM (inactive) | > 100 µM (inactive) | > 100 µM (inactive) | > 100 µM (inactive) | > 100 µM (inactive) | > 100 µM (inactive) | > 100 µM (inactive) | > 100 µM (inactive) | > 100 µM (inactive) | > 100 µM (inactive) | > 100 µM (inactive) | > 100 µM (inactive)
CN(C)/C=N\c1ccn(CCO)c(=O)n1 | > 100 µM (inactive) | > 100 µM (inactive) | > 100 µM (inactive) | > 100 µM (inactive) | > 100 µM (inactive) |  | > 100 µM (inactive) | > 100 µM (inactive) | > 100 µM (inactive) | > 100 µM (inactive) |  | > 100 µM (inactive) | > 100 µM (inactive) | > 100 µM (inactive) | > 100 µM (inactive) | > 100 µM (inactive) | > 100 µM (inactive)
CC(=O)NC1=C(NCC(C)C)C(=O)c2ccccc2C1=O | 14.6 µM (inactive) | 7.18 µM (inactive) | 14.4 µM (inactive) | 25 µM (inactive) | 20.3 µM (inactive) | 14.3 µM (inactive) | 43.5 µM (inactive) | 18.2 µM (inactive) |  | 16.6 µM (inactive) | 37.9 µM (inactive) | 26 µM (inactive) | 19.9 µM (inactive) | 16.9 µM (inactive) | 16.9 µM (inactive) | 16.5 µM (inactive) | 20.7 µM (inactive)
COC(=O)C1Cc2c(n(Cc3ccccc3)c3ccccc23)C(CCC(=O)O)N1C(C)C (stereo not given) | > 100 µM (inactive) | > 100 µM (inactive) | > 100 µM (inactive) | > 100 µM (inactive) | > 100 µM (inactive) | > 100 µM (inactive) | > 100 µM (inactive) | > 100 µM (inactive) | > 100 µM (inactive) | > 100 µM (inactive) | > 100 µM (inactive) | > 100 µM (inactive) | > 100 µM (inactive) | > 100 µM (inactive) | > 100 µM (inactive) | > 100 µM (inactive) | > 100 µM (inactive)
Cc1ccc(S(=O)(=O)N2CCCCC2CCO)cc1 (stereo not given) | > 100 µM (inactive) | > 100 µM (inactive) | > 100 µM (inactive) | > 100 µM (inactive) | > 100 µM (inactive) | > 100 µM (inactive) | > 100 µM (inactive) | > 100 µM (inactive) | 0.0342 µM (active) | > 100 µM (inactive) | > 100 µM (inactive) | > 100 µM (inactive) | > 100 µM (inactive) | > 100 µM (inactive) | > 100 µM (inactive) | > 100 µM (inactive) | > 100 µM (inactive)
CCC(Oc1ccc(OC)c2c1C(=O)CCC2)C(=O)O (stereo not given) | > 100 µM (inactive) | > 100 µM (inactive) | > 100 µM (inactive) | > 100 µM (inactive) |  |  | > 100 µM (inactive) | > 100 µM (inactive) | > 100 µM (inactive) | > 100 µM (inactive) | > 100 µM (inactive) | > 100 µM (inactive) | > 100 µM (inactive) | > 100 µM (inactive) | > 100 µM (inactive) | > 100 µM (inactive) | > 100 µM (inactive)
ClC1c2ccccc2C2(c3ccccc3)OOC1(c1ccccc1)O2 (stereo not given) | 1.61 µM (inactive) |  | 1.52 µM (inactive) | 2.18 µM (inactive) |  | 0.39 µM (active) |  | 1.45 µM (inactive) | 0.243 µM (active) | 1.77 µM (inactive) | 2.62 µM (inactive) | 1.94 µM (inactive) | 1.51 µM (inactive) | 1.48 µM (inactive) | 1.77 µM (inactive) | 1.39 µM (inactive) | 2.58 µM (inactive)
NCCCSCC(=O)O | > 100 µM (inactive) |  | > 100 µM (inactive) | > 100 µM (inactive) | > 100 µM (inactive) | > 100 µM (inactive) | > 100 µM (inactive) |  | > 100 µM (inactive) | > 100 µM (inactive) | > 100 µM (inactive) | > 100 µM (inactive) | > 100 µM (inactive) | > 100 µM (inactive) | > 100 µM (inactive) | > 100 µM (inactive) | > 100 µM (inactive)
CC[C@H]1CNC(=O)CC1CC(=O)OC (stereo not given in full) | > 100 µM (inactive) |  | > 100 µM (inactive) | > 100 µM (inactive) | > 100 µM (inactive) |  | > 100 µM (inactive) | > 100 µM (inactive) | > 100 µM (inactive) |  | > 100 µM (inactive) | > 100 µM (inactive) | > 100 µM (inactive) | > 100 µM (inactive) | > 100 µM (inactive) | > 100 µM (inactive) | > 100 µM (inactive)
CC(C)C(C(=O)N(C)C(Cc1ccccc1)C(=O)N(C)C(C(=O)N(C)C(C(=O)N1CCCC1C(=O)OC(C)(C)C)C(C)C)C(C)C)N(C)C (stereo not given) (ξNMe2Val-[NMeF][NMeV][NMeV]P-OtBu; configuration not given here) | 52.7 µM (inactive) | 31.6 µM (inactive) | 21 µM (inactive) | 64 µM (inactive) | 33.6 µM (inactive) |  | 90.6 µM (inactive) | 20 µM (inactive) | 17.4 µM (inactive) | 62.5 µM (inactive) | 60.8 µM (inactive) |  | 18 µM (inactive) | 50.1 µM (inactive) |  | 43 µM (inactive) | > 100 µM (inactive)
